From article PMC9024338, “Bruceine H Mediates EGFR-TKI Drug Persistence in NSCLC by Notch3-Dependent β-Catenin Activating FOXO3a Signaling” (Frontiers in Oncology, 2022)
Values joined by “and” are separate entries in the source; they are usually repeats but may differ in a detail not shown here. Equal entries are not always repeated. Where two headings read alike, the source gives them in different places.

Experiment: Preliminary pharmacokinetics in SD rats
Assay type: in vivo
Design: AUC (0-t), individual rats No1-No3 / AUC (0-∞), individual rats No1-No3: concentration or dose not given beside the values
Protocol: We administered BH by gavage and intravenous administration to SD rats (male, 200–220 g, n = 6) after they had fasted for 12 h. For oral gavage, the BH was dissolved in DMSO/0.5% CMC-Na (5/95, v/v/), and for intravenous administration, it was dissolved in DMSO/0.9% NaCl (5/95, v/v/), and then the blood samples were collected at intervals to determine the pharmacokinetic (PK) profiles of SD rats.

## CC1=CC(=O)[C@@H](O)[C@]2(C)[C@H]3[C@@H](O)[C@H](O)[C@@]4(CO)OC[C@@]35[C@@H](C[C@@H]12)OC(=O)[C@H](O)[C@]54O [BH, Bruceine H]
male, SD, rat, plasma, po, 10 mg/kg, p.o. 10 mg/kg, 6 h, read-out: Concentration of BH in rat plasma, individual rats No1-No3
  concentration at 6 h: 97.6 ng/mL
male, SD, rat, plasma, po, 10 mg/kg, p.o. 10 mg/kg, 8 h, read-out: Concentration of BH in rat plasma, Mean
  concentration at 8 h: 42.3 ng/mL
male, SD, rat, plasma, po, 10 mg/kg, p.o. 10 mg/kg, 8 h, read-out: Concentration of BH in rat plasma, individual rats No1-No3
  concentration at 8 h: 50.4 ng/mL
male, SD, rat, plasma, po, 10 mg/kg, p.o. 10 mg/kg, 12 h, read-out: Concentration of BH in rat plasma, Mean
  concentration at 12 h: 16.4 ng/mL
male, SD, rat, plasma, po, 10 mg/kg, p.o. 10 mg/kg, 24 h, read-out: Concentration of BH in rat plasma, Mean
  concentration at 24 h: 3.33 ng/mL
male, SD, rat, plasma, po, 10 mg/kg, rat, p.o., read-out: AUC (0-t), Mean
  AUC(0-t): 961 ng·h/mL
male, SD, rat, plasma, po, 10 mg/kg, rat, p.o., read-out: AUC (0-t), individual rats No1-No3
  AUC(0-t): 1070 ng·h/mL
male, SD, rat, plasma, po, 10 mg/kg, rat, p.o., read-out: AUC (0-∞), Mean
  AUC(0-inf): 976 ng·h/mL
male, SD, rat, plasma, po, 10 mg/kg, rat, p.o., read-out: C_last, Mean
  concentration at 24 h: 2 ng/mL
male, SD, rat, plasma, po, 10 mg/kg, rat, p.o., read-out: Cmax, Mean
  Cmax: 147 ng/mL
male, SD, rat, plasma, po, 10 mg/kg, rat, p.o., read-out: Cmax, individual rats No2, No3
  Cmax: 145 ng/mL
male, SD, rat, plasma, po, 10 mg/kg, rat, p.o., read-out: MRT (0-∞), Mean
  MRT inf: 5.92 h
male, SD, rat, plasma, po, 10 mg/kg, rat, p.o., read-out: MRT (0-∞), individual rats No1-No3
  MRT inf: 5.5 h
male, SD, rat, plasma, po, 10 mg/kg, rat, p.o., read-out: t1/2z, Mean (converted)
  half-life: 3.35 h
male, SD, rat, plasma, po, 10 mg/kg, rat, p.o., read-out: λz, Mean (converted)
  k el: 6.89e-05 s⁻¹
male, Sprague-Dawley (SD), rat, plasma, iv, 2 mg/kg, rat, i.v., read-out: AUC (0-∞), Mean
  AUC(0-inf): 1050 ng·h/mL
male, Sprague-Dawley (SD), rat, plasma, iv, 2 mg/kg, rat, i.v., read-out: MRT (0-t), Mean
  MRT last: 5.01 h
male, Sprague-Dawley (SD), rat, plasma, iv, 2 mg/kg, rat, i.v., read-out: MRT (0-t), individual rats No1-No3
  MRT last: 4.99 h
male, Sprague-Dawley (SD), rat, plasma, po, 10 mg/kg, rat, p.o., read-out: AUC (0-∞), individual rats No1-No3
  AUC(0-inf): 1070 ng·h/mL
male, Sprague-Dawley (SD), rat, plasma, po, 10 mg/kg, rat, p.o., read-out: MRT (0-t), Mean
  MRT last: 5.54 h
male, Sprague-Dawley (SD), rat, plasma, po, 10 mg/kg, rat, p.o., read-out: MRT (0-t), individual rats No1-No3
  MRT last: 5.47 h
male, rat, plasma, SD rats, 10 mg/kg po vs 2 mg/kg iv, read-out: Oral bioavailability (F)
  bioavailability: 20.4%
male, rat, plasma, SD rats, 10 mg/kg po, read-out: Time of maximum concentration (T max)
  Tmax: 1 h
p.o. 10 mg/kg, 0.25 h, 10 mg/kg
  Concentration of BH in rat plasma, individual rats No1-No3: 10.5 ng/mL and 11.3 ng/mL
p.o. 10 mg/kg, 0.5 h, 10 mg/kg
  Concentration of BH in rat plasma, individual rats No1-No3: 55.4 ng/mL and 50.6 ng/mL
p.o. 10 mg/kg, 0.75 h, 10 mg/kg
  Concentration of BH in rat plasma, individual rats No1-No3: 98.5 ng/mL and 104.2 ng/mL
p.o. 10 mg/kg, 1 h, 10 mg/kg
  Concentration of BH in rat plasma, individual rats No1-No3: 145.3 ng/mL and 140.1 ng/mL
p.o. 10 mg/kg, 2 h, 10 mg/kg
  Concentration of BH in rat plasma, individual rats No1-No3: 117.7 ng/mL and 120.4 ng/mL
p.o. 10 mg/kg, 4 h, 10 mg/kg
  Concentration of BH in rat plasma, individual rats No1-No3: 99.4 ng/mL and 89.6 ng/mL
p.o. 10 mg/kg, 6 h, 10 mg/kg
  Concentration of BH in rat plasma, individual rats No1-No3: 75.3 ng/mL and 68.5 ng/mL
p.o. 10 mg/kg, 8 h, 10 mg/kg
  Concentration of BH in rat plasma, individual rats No1-No3: 35.4 ng/mL and 41.2 ng/mL
p.o. 10 mg/kg, 12 h, 10 mg/kg
  Concentration of BH in rat plasma, individual rats No1-No3: 16.8 ng/mL and 10.4 ng/mL and 22.1 ng/mL
p.o. 10 mg/kg, 24 h, 10 mg/kg
  Concentration of BH in rat plasma, individual rats No1-No3: 2.8 ng/mL and 1.8 ng/mL and 5.4 ng/mL
rat, i.v.
  AUC (0-t), individual rats No1-No3: 883.761 ng·h/mL and 981.633 ng·h/mL
  AUC (0-∞), individual rats No1-No3: 977.839 ng·h/mL and 1158.837 ng·h/mL
  AUMC (0-t), Mean: 4747.166 h*h*ng/mL
  AUMC (0-t), individual rats No1-No3: 4816.632 h*h*ng/mL and 3928.001 h*h*ng/mL and 5496.865 h*h*ng/mL
  AUMC (0-∞), Mean: 9005.111 h*h*ng/mL
  AUMC (0-∞), individual rats No1-No3: 6587.862 h*h*ng/mL and 7623.703 h*h*ng/mL and 12803.767 h*h*ng/mL
  C0, Mean: 516.231 ng/mL
  C0, individual rats No1-No3: 543.621 ng/mL and 515.672 ng/mL and 489.401 ng/mL
  CLz, individual rats No1-No3: 34.08878 mL/min/kg and 28.76447 mL/min/kg
  C_last, individual rats No1-No3: 6.155 ng/mL and 10.282 ng/mL
  MRT (0-t), individual rats No1-No3: 4.445 h and 5.6 h
  MRT (0-∞), individual rats No1-No3: 7.796 h and 11.049 h
  R_AUC (t/∞), Mean: 89.967%
  R_AUC (t/∞), individual rats No1-No3: 94.8% and 90.4% and 84.7%
  VRT (0-t), Mean: 33.805 h^2
  VRT (0-t), individual rats No1-No3: 30.325 h^2 and 31.091 h^2 and 40 h^2
  VRT (0-∞), Mean: 157.741 h^2
  VRT (0-∞), individual rats No1-No3: 73.322 h^2 and 156.114 h^2 and 243.787 h^2
  Vz, individual rats No1-No3: 31.260167 L/kg and 29.744277 L/kg
  t1/2z, individual rats No1-No3: 10.592 h and 11.943 h
  λz, individual rats No1-No3: 0.065 h⁻¹ and 0.058 h⁻¹
rat, p.o.
  AUC (0-t), individual rats No1-No3: 858.063 ng·h/mL and 958.688 ng·h/mL
  AUC (0-∞), individual rats No1-No3: 858.682 ng·h/mL and 1001.201 ng·h/mL
  AUMC (0-t), Mean: 5336.656 h*h*ng/mL
  AUMC (0-t), individual rats No1-No3: 5831.875 h*h*ng/mL and 4275.963 h*h*ng/mL and 5902.131 h*h*ng/mL
  AUMC (0-∞), Mean: 5811.834 h*h*ng/mL
  AUMC (0-∞), individual rats No1-No3: 5879.636 h*h*ng/mL and 4292.741 h*h*ng/mL and 7263.126 h*h*ng/mL
  CLz, individual rat No1: 155.9614 mL/min/kg
  C_last, individual rats No1-No3: 0.506 ng/mL and 0.202 ng/mL and 5.305 ng/mL
  Cmax, individual rats No2, No3: 140.1 ng/mL
  MRT (0-t), individual rats No1-No3: 4.983 h and 6.156 h
  MRT (0-∞), individual rats No1-No3: 4.999 h and 7.254 h
  R_AUC (t/∞), Mean: 98.5%
  R_AUC (t/∞), individual rats No1-No3: 99.8% and 99.9% and 95.8%
  VRT (0-t), Mean: 19.306 h^2
  VRT (0-t), individual rats No1-No3: 17.271 h^2 and 15.275 h^2 and 25.371 h^2
  VRT (0-∞), Mean: 29.291 h^2
  VRT (0-∞), individual rats No1-No3: 18.047 h^2 and 15.623 h^2 and 54.204 h^2
  Vz, individual rat No1: 32.202018 L/kg
  t1/2z, individual rats No1-No3: 2.385 h and 2.122 h and 5.553 h
  λz, individual rats No1-No3: 0.291 h⁻¹ and 0.327 h⁻¹ and 0.125 h⁻¹
